According to US20250271426A1, “REDUCTION OF BITTER TASTE OF ACTIVE PHARMACEUTICAL INGREDIENTS AND RELATED ASSAYS AND SCREENING METHODS” (Firmenich Incorporated, priority 2022, published 2025):

Columns and labels:
Test in all cases: FLIPR calcium assay, cells with promiscuous G protein transfected with bitter receptor cDNA
Assay type in all cases: cell-based
Conditions in all cases: responsive if cellular response of >10% over baseline, Fluo4-AM
[1] = target: T1, T2R receptor SEQ ID NO: 3 (S3) (Homo sapiens, UniProt Q9NYW0, T156M)
T1 construct: expressed in transfected cells; host or cells: cells expressing a promiscuous G protein (e.g., G16g44)
T1 sequence (Q9NYW0 1-307 T156M): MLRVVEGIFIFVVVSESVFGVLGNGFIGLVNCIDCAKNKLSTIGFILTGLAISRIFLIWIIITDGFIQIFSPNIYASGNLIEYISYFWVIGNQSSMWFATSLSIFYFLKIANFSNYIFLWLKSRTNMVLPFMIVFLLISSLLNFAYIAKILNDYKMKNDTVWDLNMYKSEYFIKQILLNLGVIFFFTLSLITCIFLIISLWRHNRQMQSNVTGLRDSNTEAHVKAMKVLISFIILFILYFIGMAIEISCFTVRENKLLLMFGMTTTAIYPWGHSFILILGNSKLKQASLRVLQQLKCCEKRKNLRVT
Procedure: (§1) Cells expressing a promiscuous G protein (e.g., G16g44) were transfected with vectors encoding 22 functional bitter receptor cDNAs, with one receptor per transfection. The cells were transfected directly in 384-well format high-density plates and incubated for 28 hours. Later, cells were loaded with the Ca-specific dye Fluo4-AM. After an incubation of 60 minutes, excess dye is washed off, and cells are stimulated with respective bitter agonists while simultaneously recording changes in intracellular fluorescence using a FLIPR instrument.
(§2) The above protocol was carried out using 94 different active pharmaceutical ingredients (APIs) that span a wide range of different APIs having a diversity of chemical structures. A particular T2R receptor was identified as being responsive to a particular API if it triggered a cellular response of >10% over baseline.

[2] = target: T2, T2R receptor SEQ ID NO: 2 (S2) (Homo sapiens, UniProt Q9NYW2)
T2 construct: expressed in transfected cells; host or cells: cells expressing a promiscuous G protein (e.g., G16g44)
T2 sequence (Q9NYW2 1-309): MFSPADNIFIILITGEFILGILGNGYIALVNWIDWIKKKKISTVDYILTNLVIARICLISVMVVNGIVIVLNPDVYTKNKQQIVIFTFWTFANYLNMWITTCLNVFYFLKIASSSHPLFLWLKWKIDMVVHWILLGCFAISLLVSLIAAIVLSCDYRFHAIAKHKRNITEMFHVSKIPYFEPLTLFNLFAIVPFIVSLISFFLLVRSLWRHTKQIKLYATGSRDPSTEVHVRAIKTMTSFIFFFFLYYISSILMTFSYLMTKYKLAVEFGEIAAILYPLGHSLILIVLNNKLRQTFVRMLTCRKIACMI
Procedure: as §1, §2

[3] = target: T3, T2R receptor SEQ ID NO: 1 (S1) (Homo sapiens, UniProt Q9NYW7)
T3 construct: expressed in transfected cells; host or cells: cells expressing a promiscuous G protein (e.g., G16g44)
T3 sequence (Q9NYW7 1-299): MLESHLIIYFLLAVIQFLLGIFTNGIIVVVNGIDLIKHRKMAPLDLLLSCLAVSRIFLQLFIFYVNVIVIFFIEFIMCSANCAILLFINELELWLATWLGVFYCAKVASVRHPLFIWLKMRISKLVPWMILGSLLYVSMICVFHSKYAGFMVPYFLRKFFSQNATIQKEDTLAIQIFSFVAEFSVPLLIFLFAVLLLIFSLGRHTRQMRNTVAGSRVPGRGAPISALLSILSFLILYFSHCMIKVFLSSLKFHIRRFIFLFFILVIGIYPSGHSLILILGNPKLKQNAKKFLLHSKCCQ
Procedure: as §1, §2

[4] = target: T4, T2R receptor SEQ ID NO: 5 (S5) (Homo sapiens, UniProt P59534)
T4 construct: expressed in transfected cells; host or cells: cells expressing a promiscuous G protein (e.g., G16g44)
T4 sequence (P59534 18-338): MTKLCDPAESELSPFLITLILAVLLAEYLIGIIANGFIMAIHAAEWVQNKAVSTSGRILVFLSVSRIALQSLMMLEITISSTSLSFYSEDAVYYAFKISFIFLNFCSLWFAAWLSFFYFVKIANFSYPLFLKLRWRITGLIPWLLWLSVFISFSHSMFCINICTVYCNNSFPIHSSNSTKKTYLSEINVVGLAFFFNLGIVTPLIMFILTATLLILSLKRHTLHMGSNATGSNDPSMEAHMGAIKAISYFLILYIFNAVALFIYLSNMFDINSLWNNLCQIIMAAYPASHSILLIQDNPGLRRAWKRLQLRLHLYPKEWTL
Procedure: as §1, §2

[5] = target: T5, T2R receptor SEQ ID NO: 6 (S6) (Homo sapiens, UniProt P59540)
T5 construct: expressed in transfected cells; host or cells: cells expressing a promiscuous G protein (e.g., G16g44)
T5 sequence (P59540 1-309): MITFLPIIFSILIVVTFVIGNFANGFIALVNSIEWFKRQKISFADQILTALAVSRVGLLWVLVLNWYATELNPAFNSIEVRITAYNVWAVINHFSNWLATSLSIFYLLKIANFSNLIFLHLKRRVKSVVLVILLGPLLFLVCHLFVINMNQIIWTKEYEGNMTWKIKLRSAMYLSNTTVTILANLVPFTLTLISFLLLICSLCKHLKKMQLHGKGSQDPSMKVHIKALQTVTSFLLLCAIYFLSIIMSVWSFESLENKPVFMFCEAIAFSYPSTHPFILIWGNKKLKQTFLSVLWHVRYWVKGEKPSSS
Procedure: as §1, §2

[6] = target: T6, T2R receptor SEQ ID NO: 4 (S4) (Homo sapiens, UniProt Q9NYV8)
T6 construct: expressed in transfected cells; host or cells: cells expressing a promiscuous G protein (e.g., G16g44)
T6 sequence (Q9NYV8 1-317): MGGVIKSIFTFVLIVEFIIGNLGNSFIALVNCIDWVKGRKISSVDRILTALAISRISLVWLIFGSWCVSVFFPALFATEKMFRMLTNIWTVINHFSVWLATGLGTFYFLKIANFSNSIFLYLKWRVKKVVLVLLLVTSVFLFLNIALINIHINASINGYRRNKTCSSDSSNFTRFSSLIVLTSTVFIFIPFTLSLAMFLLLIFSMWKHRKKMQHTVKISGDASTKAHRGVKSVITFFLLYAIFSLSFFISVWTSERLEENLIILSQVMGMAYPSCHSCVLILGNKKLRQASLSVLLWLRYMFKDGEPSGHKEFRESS
Procedure: as §1, §2

## NCC1(CC(=O)O)CCCCC1 [Gabapentin]
[1]
  S3 positive response of T2R receptor to API: + (a “+” to indicate whether a particular T2R receptor showed a positive response to a particular API)
[2]
  S2 positive response of T2R receptor to API: + (a “+” to indicate whether a particular T2R receptor showed a positive response to a particular API)

## CC(C)(C)NC[C@H](O)COc1nsnc1N1CCOCC1 [Timolol]
[3]
  S1 positive response of T2R receptor to API: + (a “+” to indicate whether a particular T2R receptor showed a positive response to a particular API)
[4]
  S5 positive response of T2R receptor to API: + (a “+” to indicate whether a particular T2R receptor showed a positive response to a particular API)
[1]
  S3 positive response of T2R receptor to API: + (a “+” to indicate whether a particular T2R receptor showed a positive response to a particular API)
[5]
  S6 positive response of T2R receptor to API: + (a “+” to indicate whether a particular T2R receptor showed a positive response to a particular API)

## COc1ccc2nc([S@@+]([O-])Cc3ncc(C)c(OC)c3C)[nH]c2c1 [Esomeprazole]
[1]
  S3 positive response of T2R receptor to API: + (a “+” to indicate whether a particular T2R receptor showed a positive response to a particular API)
[6]
  S4 positive response of T2R receptor to API: + (a “+” to indicate whether a particular T2R receptor showed a positive response to a particular API)
[2]
  S2 positive response of T2R receptor to API: + (a “+” to indicate whether a particular T2R receptor showed a positive response to a particular API)
[5]
  S6 positive response of T2R receptor to API: + (a “+” to indicate whether a particular T2R receptor showed a positive response to a particular API)

## CN(C)CCC(c1ccc(Cl)cc1)c1ccccn1 (stereo not drawn) [Chlorpheniramine]
[3]
  S1 positive response of T2R receptor to API: + (a “+” to indicate whether a particular T2R receptor showed a positive response to a particular API)
[4]
  S5 positive response of T2R receptor to API: + (a “+” to indicate whether a particular T2R receptor showed a positive response to a particular API)
[1]
  S3 positive response of T2R receptor to API: + (a “+” to indicate whether a particular T2R receptor showed a positive response to a particular API)
[6]
  S4 positive response of T2R receptor to API: + (a “+” to indicate whether a particular T2R receptor showed a positive response to a particular API)
[5]
  S6 positive response of T2R receptor to API: + (a “+” to indicate whether a particular T2R receptor showed a positive response to a particular API)

## CCn1cc(C(=O)O)c(=O)c2cc(F)c(N3CCNC(C)C3)c(F)c21 (stereo not drawn) [Lomefloxacin]
[2]
  S2 positive response of T2R receptor to API: + (a “+” to indicate whether a particular T2R receptor showed a positive response to a particular API)
[5]
  S6 positive response of T2R receptor to API: + (a “+” to indicate whether a particular T2R receptor showed a positive response to a particular API)

## CN(C)CCC(c1ccc(Br)cc1)c1ccccn1 (stereo not drawn) [Brompheniramine]
[3]
  S1 positive response of T2R receptor to API: + (a “+” to indicate whether a particular T2R receptor showed a positive response to a particular API)
[4]
  S5 positive response of T2R receptor to API: + (a “+” to indicate whether a particular T2R receptor showed a positive response to a particular API)
[1]
  S3 positive response of T2R receptor to API: + (a “+” to indicate whether a particular T2R receptor showed a positive response to a particular API)
[6]
  S4 positive response of T2R receptor to API: + (a “+” to indicate whether a particular T2R receptor showed a positive response to a particular API)
[5]
  S6 positive response of T2R receptor to API: + (a “+” to indicate whether a particular T2R receptor showed a positive response to a particular API)

## N=C(NCCCCCCNC(=N)NC(=N)Nc1ccc(Cl)cc1)NC(=N)Nc1ccc(Cl)cc1.O=C(O)[C@H](O)[C@@H](O)[C@H](O)[C@H](O)CO.O=C(O)[C@H](O)[C@@H](O)[C@H](O)[C@H](O)CO [Chlorhexidine Digluconate]
[3]
  S1 positive response of T2R receptor to API: + (a “+” to indicate whether a particular T2R receptor showed a positive response to a particular API)
[4]
  S5 positive response of T2R receptor to API: + (a “+” to indicate whether a particular T2R receptor showed a positive response to a particular API)
[6]
  S4 positive response of T2R receptor to API: + (a “+” to indicate whether a particular T2R receptor showed a positive response to a particular API)
[5]
  S6 positive response of T2R receptor to API: + (a “+” to indicate whether a particular T2R receptor showed a positive response to a particular API)

## OC(CCCN1CCCCC1)(c1ccccc1)c1ccccc1 [Diphenidol]
[3]
  S1 positive response of T2R receptor to API: + (a “+” to indicate whether a particular T2R receptor showed a positive response to a particular API)
[4]
  S5 positive response of T2R receptor to API: + (a “+” to indicate whether a particular T2R receptor showed a positive response to a particular API)
[1]
  S3 positive response of T2R receptor to API: + (a “+” to indicate whether a particular T2R receptor showed a positive response to a particular API)
[6]
  S4 positive response of T2R receptor to API: + (a “+” to indicate whether a particular T2R receptor showed a positive response to a particular API)
[5]
  S6 positive response of T2R receptor to API: + (a “+” to indicate whether a particular T2R receptor showed a positive response to a particular API)

## COc1ccc2c(c1)[C@]13CCCC[C@@H]1[C@H](C2)N(C)CC3 [Dextromethorphan]
[3]
  S1 positive response of T2R receptor to API: + (a “+” to indicate whether a particular T2R receptor showed a positive response to a particular API)
[4]
  S5 positive response of T2R receptor to API: + (a “+” to indicate whether a particular T2R receptor showed a positive response to a particular API)
[1]
  S3 positive response of T2R receptor to API: + (a “+” to indicate whether a particular T2R receptor showed a positive response to a particular API)
[6]
  S4 positive response of T2R receptor to API: + (a “+” to indicate whether a particular T2R receptor showed a positive response to a particular API)
[5]
  S6 positive response of T2R receptor to API: + (a “+” to indicate whether a particular T2R receptor showed a positive response to a particular API)

## CC(=O)CC(c1ccccc1)c1c(O)c2ccccc2oc1=O (stereo not drawn) [Warfarin]
[3]
  S1 positive response of T2R receptor to API: + (a “+” to indicate whether a particular T2R receptor showed a positive response to a particular API)
[4]
  S5 positive response of T2R receptor to API: + (a “+” to indicate whether a particular T2R receptor showed a positive response to a particular API)
[6]
  S4 positive response of T2R receptor to API: + (a “+” to indicate whether a particular T2R receptor showed a positive response to a particular API)
